The test concerns the target T1, Full-length, GST-tagged, human CaMKIIδ (Homo sapiens, UniProt Q13557).
T1 construct: Full-Length, Glutathione-S-Transferase(GST)-Tagged, Human CaMKIIδ was purchased from Carna Biosciences; purchased Carna Biosciences 02-111
Kind of test: CaMKIIδ binding assay (TR-FRET with BODIPY-labeled probe ligand). The conditions noted are these: CaMKIIδ binding assay, results of Table 2. In outline: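 Compounds were tested as 4-fold, eight-point series for 1 hr at room temperature, and IC50 was obtained by logistic fitting against a 3 μM parent-compound control. Signal came from displacement of a 300 nM BODIPY ligand from 0.5 nM GST-CaMKIIδ, detected via Tb-anti-GST in calmodulin/Ca2+ (pH 7.6).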
In general terms: TR-FRET usually uses a lanthanide donor and a delayed reading to cut background.
T1 sequence (Q13557 1-478 isoform Q13557-12): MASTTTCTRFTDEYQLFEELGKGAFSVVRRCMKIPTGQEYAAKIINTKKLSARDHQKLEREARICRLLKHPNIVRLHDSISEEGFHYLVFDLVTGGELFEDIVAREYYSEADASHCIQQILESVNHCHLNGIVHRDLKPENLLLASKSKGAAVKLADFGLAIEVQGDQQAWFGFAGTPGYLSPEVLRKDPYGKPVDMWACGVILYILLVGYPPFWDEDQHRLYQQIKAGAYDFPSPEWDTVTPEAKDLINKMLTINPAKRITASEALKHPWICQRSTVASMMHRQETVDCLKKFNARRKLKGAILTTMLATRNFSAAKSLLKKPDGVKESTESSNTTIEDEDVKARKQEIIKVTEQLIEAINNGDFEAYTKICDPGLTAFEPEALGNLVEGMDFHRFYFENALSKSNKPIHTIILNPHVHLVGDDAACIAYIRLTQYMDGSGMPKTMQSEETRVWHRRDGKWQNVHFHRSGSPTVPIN
Consider `COc1cc2c(cc1Nc1ncc(-c3ccc(Cl)c(O[C@@H](C)Cn4cnnn4)c3)cn1)N(C(=O)CN(C)C)CC2` [Example 497, (S)-1-(6-((5-(3-((1-(1H-tetrazol-1-yl)propan-2-yl)oxy)-4-chlorophenyl)pyrimidin-2-yl)amino)-5-methoxyindolin-1-yl)-2-(dimethylamino)ethan-1-one], for which the IC50 (usually the point on the concentration scale where inhibition reaches its midpoint) is less than 10 nM.

`COc1cc2c(cc1Nc1ncc(-c3ccc(Cl)c(O[C@@H](C)Cn4cnnn4)c3)cn1)N(C(=O)CN1CCOCC1)CC2` [Example 498, (S)-1-(6-((5-(3-((1-(1H-tetrazol-1-yl)propan-2-yl)oxy)-4-chlorophenyl)pyrimidin-2-yl)amino)-5-methoxyindolin-1-yl)-2-morpholinoethan-1-one] gave an IC50 not below 100 nM.

Turning to `COc1cc2c(cc1Nc1ncc(-c3ccc(Cl)c(O[C@@H](C)Cn4cnnn4)c3)cn1)CN(CC1COC1)CC2` [Example 499, (S)-N-(5-(3-((1-(1H-tetrazol-1-yl)propan-2-yl)oxy)-4-chlorophenyl)pyrimidin-2-yl)-6-methoxy-2-(oxetan-3-ylmethyl)-1,2,3,4-tetrahydroisoquinolin-7-amine], the IC50 is less than 10 nM.

With `COCC(=O)N1CCc2cc(OC)c(Nc3ncc(-c4ccc(Cl)c(O[C@@H](C)Cn5cnnn5)c4)cn3)cc2C1` [Example 500, (S)-1-(7-((5-(3-((1-(1H-tetrazol-1-yl)propan-2-yl)oxy)-4-chlorophenyl)pyrimidin-2-yl)amino)-6-methoxy-3,4-dihydroisoquinolin-2(1H)-yl)-2-methoxyethan-1-one], the IC50 was in the range of 10 to 100 nM.

In the case of `COc1cc2c(cc1Nc1ncc(-c3ccc(Cl)c(O[C@@H](C)Cn4cnnn4)c3)cn1)CN(C(=O)CN1CCOCC1)CC2` [Example 501, (S)-1-(7-((5-(3-((1-(1H-tetrazol-1-yl)propan-2-yl)oxy)-4-chlorophenyl)pyrimidin-2-yl)amino)-6-methoxy-3,4-dihydroisoquinolin-2(1H)-yl)-2-morpholinoethan-1-one], the IC50 lay in the range of 10 to 100 nM.

`COc1cc2c(cc1Nc1ncc(-c3ccc(Cl)c(O[C@@H](C)Cn4cnnn4)c3)cn1)CN(C1CCOCC1)CC2` [Example 502, (S)-N-(5-(3-((1-(1H-tetrazol-1-yl)propan-2-yl)oxy)-4-chlorophenyl)pyrimidin-2-yl)-6-methoxy-2-(tetrahydro-2H-pyran-4-yl)-1,2,3,4-tetrahydroisoquinolin-7-amine] showed an IC50 of less than 10 nM.

In turn, `COc1cc2c(cc1Nc1ncc(-c3ccc(Cl)c(O[C@@H](C)Cn4cnnn4)c3)cn1)N(CC1COC1)CC2` [Example 503, (S)-N-(5-(3-((1-(1H-tetrazol-1-yl)propan-2-yl)oxy)-4-chlorophenyl)pyrimidin-2-yl)-5-methoxy-1-(oxetan-3-ylmethyl)indolin-6-amine] displayed an IC50 of 10 to 100 nM.

`COc1cc2c(cc1Nc1ncc(-c3ccc(Cl)c(O[C@@H](C)Cn4cnnn4)c3)cn1)CN(c1ccnc(C)n1)CC2` [Example 504, (S)-N-(5-(3-((1-(1H-tetrazol-1-yl)propan-2-yl)oxy)-4-chlorophenyl)pyrimidin-2-yl)-6-methoxy-2-(2-methylpyrimidin-4-yl)-1,2,3,4-tetrahydroisoquinolin-7-amine] had an IC50 of 10 to 100 nM.

In the case of `COc1cc2c(cc1Nc1ncc(-c3ccc(Cl)c(O[C@@H](C)Cn4cnnn4)c3)cn1)CCN(c1ccnc(C)n1)C2` [Example 505, (S)-N-(5-(3-((1-(1H-tetrazol-1-yl)propan-2-yl)oxy)-4-chlorophenyl)pyrimidin-2-yl)-7-methoxy-2-(2-methylpyrimidin-4-yl)-1,2,3,4-tetrahydroisoquinolin-6-amine], the IC50 lay within 10 to 100 nM.

Turning to `COc1cc2c(cc1Nc1ncc(-c3ccc(Cl)c(O[C@@H](C)Cn4cnnn4)c3)cn1)CCN(CC(=O)O)C2` [Example 506, (S)-2-(6-((5-(3-((1-(1H-tetrazol-1-yl)propan-2-yl)oxy)-4-chlorophenyl)pyrimidin-2-yl)amino)-7-methoxy-3,4-dihydroisoquinolin-2(1H)-yl)acetic acid], the IC50 was less than 10 nM.

Regarding `C[C@@H](Cn1cnnn1)Oc1cc(-c2cnc(Nc3cc4c(cc3Cl)CCNCC4)nc2)ccc1Cl` [Example 507, (S)-N-(5-(3-((1-(1H-tetrazol-1-yl)propan-2-yl)oxy)-4-chlorophenyl)pyrimidin-2-yl)-8-chloro-2,3,4,5-tetrahydro-1H-benzo[d]azepin-7-amine], the IC50 was less than 10 nM.

In turn, `COc1cnc(C2CCC(F)(F)CC2)cc1Nc1ncc(-c2ccc(Cl)c(O[C@@H](C)Cn3cnnn3)c2)cn1` [Example 508, (S)-5-(3-((1-(1H-tetrazol-1-yl)propan-2-yl)oxy)-4-chlorophenyl)-N-(2-(4,4-difluorocyclohexyl)-5-methoxypyridin-4-yl)pyrimidin-2-amine] gave an IC50 not below 100 nM.

In turn, `Cc1cnc(N2CCC(N3CCOCC3)CC2)cc1Nc1ncc(-c2ccc(C#N)c(O[C@@H](C)Cn3cnnn3)c2)cn1` [Example 509, (S)-2-((1-(1H-tetrazol-1-yl)propan-2-yl)oxy)-4-(2-((5-methyl-2-(4-morpholinopiperidin-1-yl)pyridin-4-yl)amino)pyrimidin-5-yl)benzonitrile] showed an IC50 of 10 to 100 nM.

As for `COc1cc2c(cc1Nc1ncc(-c3ccc(Cl)c(O[C@@H](C)Cn4cnnn4)c3)cn1)CN(CC(C)=O)CC2` [Example 510, (S)-1-(7-((5-(3-((1-(1H-tetrazol-1-yl)propan-2-yl)oxy)-4-chlorophenyl)pyrimidin-2-yl)amino)-6-methoxy-3,4-dihydroisoquinolin-2(1H)-yl)propan-2-one], the IC50 was less than 10 nM.

Take `COc1cc2c(cc1Nc1ncc(-c3ccc(Cl)c(O[C@@H](C)Cn4cnnn4)c3)cn1)CN(CCO)CC2` [Example 511, (S)-2-(7-((5-(3-((1-(1H-tetrazol-1-yl)propan-2-yl)oxy)-4-chlorophenyl)pyrimidin-2-yl)amino)-6-methoxy-3,4-dihydroisoquinolin-2(1H)-yl)ethan-1-ol]: the IC50 was less than 10 nM.

With `COc1cc2c(cc1Nc1ncc(-c3ccc(Cl)c(O[C@@H](C)Cn4cnnn4)c3)cn1)C(=O)N(CCN(C)C)C2` [Example 512, (S)-6-((5-(3-((1-(1H-tetrazol-1-yl)propan-2-yl)oxy)-4-chlorophenyl)pyrimidin-2-yl)amino)-2-(2-(dimethylamino)ethyl)-5-methoxyisoindolin-1-one], the IC50 was 10 to 100 nM.

Compound `C[C@@H](Cn1cnnn1)Oc1cc(-c2cnc(Nc3cc4c(cc3Cl)CCN(C3COC3)CC4)nc2)ccc1Cl` [Example 513, (S)-N-(5-(3-((1-(1H-tetrazol-1-yl)propan-2-yl)oxy)-4-chlorophenyl)pyrimidin-2-yl)-8-chloro-3-(oxetan-3-yl)-2,3,4,5-tetrahydro-1H-benzo[d]azepin-7-amine] had an IC50 of less than 10 nM.

With `CCN(C)CC(=O)N1CCc2cc(Nc3ncc(-c4ccc(Cl)c(O[C@@H](C)Cn5cnnn5)c4)cn3)c(OC)cc2C1` [Example 514, (S)-1-(6-((5-(3-((1-(1H-tetrazol-1-yl)propan-2-yl)oxy)-4-chlorophenyl)pyrimidin-2-yl)amino)-7-methoxy-3,4-dihydroisoquinolin-2(1H)-yl)-2-(ethyl(methyl)amino)ethan-1-one], the IC50 was less than 10 nM.

`CCc1cc2c(cc1Nc1ncc(-c3ccc(Cl)c(O[C@@H](C)Cn4cnnn4)c3)cn1)CN(C1COC1)CC2` [Example 515, (S)-N-(5-(3-((1-(1H-tetrazol-1-yl)propan-2-yl)oxy)-4-chlorophenyl)pyrimidin-2-yl)-6-ethyl-2-(oxetan-3-yl)-1,2,3,4-tetrahydroisoquinolin-7-amine] returned an IC50 of 10 to 100 nM.

On to `CCc1cc2c(cc1Nc1ncc(-c3ccc(C#N)c(O[C@@H](C)Cn4cnnn4)c3)cn1)CN(C1COC1)CC2` [Example 516, (S)-2-((1-(1H-tetrazol-1-yl)propan-2-yl)oxy)-4-(2-((6-ethyl-2-(oxetan-3-yl)-1,2,3,4-tetrahydroisoquinolin-7-yl)amino)pyrimidin-5-yl)benzonitrile], for which the IC50 lay within 10 to 100 nM.

Regarding `COc1cnc(C2CCOCC2)cc1Nc1ncc(-c2ccc(Cl)c(O[C@@H](C)Cn3cnnn3)c2)cn1` [Example 517, (S)-5-(3-((1-(1H-tetrazol-1-yl)propan-2-yl)oxy)-4-chlorophenyl)-N-(5-methoxy-2-(tetrahydro-2H-pyran-4-yl)pyridin-4-yl)pyrimidin-2-amine], the IC50 is 10 to 100 nM.

On to `COCCN1CCc2cc(OC)c(Nc3ncc(-c4ccc(Cl)c(O[C@@H](C)Cn5cnnn5)c4)cn3)cc2C1` [Example 518, (S)-N-(5-(3-((1-(1H-tetrazol-1-yl)propan-2-yl)oxy)-4-chlorophenyl)pyrimidin-2-yl)-6-methoxy-2-(2-methoxyethyl)-1,2,3,4-tetrahydroisoquinolin-7-amine], for which the IC50 is less than 10 nM.

For the compound `COc1cc2c(cc1Nc1ncc(-c3ccc(Cl)c(O[C@@H](C)Cn4cnnn4)c3)cn1)CN(C(=O)COC(C)=O)CC2` [Example 519, (S)-2-(7-((5-(3-((1-(1H-tetrazol-1-yl)propan-2-yl)oxy)-4-chlorophenyl)pyrimidin-2-yl)amino)-6-methoxy-3,4-dihydroisoquinolin-2(1H)-yl)-2-oxoethyl acetate], the IC50 fell in the range of 10 to 100 nM.

With `COc1cc2c(cc1Nc1ncc(-c3ccc(Cl)c(O[C@@H](C)Cn4cnnn4)c3)cn1)CN(C(=O)C(C)(C)OC(C)=O)CC2` [Example 520, (S)-1-(7-((5-(3-((1-(1H-tetrazol-1-yl)propan-2-yl)oxy)-4-chlorophenyl)pyrimidin-2-yl)amino)-6-methoxy-3,4-dihydroisoquinolin-2(1H)-yl)-2-methyl-1-oxopropan-2-yl acetate], the IC50 is not below 100 nM.

`COc1cc2c(cc1Nc1ncc(-c3ccc(Cl)c(O[C@@H](C)Cn4cnnn4)c3)cn1)CN(C(=O)C(C)(C)O)CC2` [Example 521, (S)-1-(7-((5-(3-((1-(1H-tetrazol-1-yl)propan-2-yl)oxy)-4-chlorophenyl)pyrimidin-2-yl)amino)-6-methoxy-3,4-dihydroisoquinolin-2(1H)-yl)-2-hydroxy-2-methylpropan-1-one] had an IC50 of 10 to 100 nM.

For the origin of these results see patent publication US10543212B2, “Substituted amines for treating cardiac diseases” (Cardurion Pharmaceuticals, LLC, priority 2017, dated 2020).
